Measurements: PMC3715451, “Roles for Ordered and Bulk Solvent in Ligand Recognition and Docking in Two Related Cavities” (PLoS ONE, 2013)
“Also recorded” adds a separate entry of the source. Like-named read-outs stand apart in the source and are kept apart here.

What was measured:
[1] = target: T1, Cytochrome c Peroxidase Gateless cavity (P190G/W191G/Δ192-3) (Saccharomyces cerevisiae, UniProt P00431, A260G/D219G/DEL257-258/P257G/T120I/W258G); test: Binding to the CcP Gateless cavity by titration of the UV-Vis Heme Soret band (or ITC); conditions: for Binding by UV-Vis: neutral docking hits, at up to 1 mM concentration
T1 construct: made in house
Protocol: (§1) Our first interest was to investigate the effect of opening the cavity to bulk solvent. Six known ligands of the buried W191G cavity were tested for binding to the Gateless cavity (P190G/W191G/Δ192-3) by UV-Vis titration or by Isothermal Titration Calorimetry (ITC) ( Figure 2 , Table S1 and Figure S1).
(§2) The compounds were tested for binding by measuring perturbation of the Heme Soret band at 10°C in 100 mM citrate buffer at pH 4.5 or 500 mM MES buffer pH 6.0 [27], [73]. To avoid competition with small cations like potassium, the pH of both buffer conditions was adjusted with Bis-Tris-Propane. Stock solutions were made up in DMSO and diluted into assay buffer to derive KD values in titration curves. KD values were obtained by fitting the difference absorbance of the Heme Soret band to a one-site binding hyperbola in GraphPad Prism (GraphPad Software, Inc.).
(§3) Experiments were performed as described. Assays were performed at 10°C in 100 mM citrate buffer at pH 4.5. Ligand stocks were prepared in buffer from overnight dialysis of the protein to prevent buffer mismatch.

[2] = tested on: Cytochrome c Peroxidase Gateless cavity (P190G/W191G/Δ192-3); test: as above; conditions: for loss in affinity going from W191G to Gateless: ratio of KD Gateless / W191G; for improvement in affinity in Gateless versus closed W191G: ratio of KD W191G / Gateless
Protocol: as §1, §2, §3

CcP Gateless = target: T2, CcP Gateless (Saccharomyces cerevisiae, UniProt P00431, A260G/D219G/DEL257-258/P257G/T120I/W258G); test: Low C-value Isothermal Titration Calorimetry against CcP Gateless; type: binding; conditions: ITC, 283K; † approximate value from partial ITC curves
T2 construct: made in house
Protocol: as §3
Table S1. ITC data (ΔG, ΔH and ΔS): binding of compounds 1, 2, 3, 4 and 6 to CcP Gateless at 283K.

[3] = target: Cytochrome c Peroxidase W191G cavity; conditions: closed W191G cavity, cited from earlier work
[4] = six known W191G ligands, UV-Vis titration or ITC, † = approximate KD by endpoint UV-Vis assay or partial ITC curves, limited by solubility, read-out: KD Gateless
[5] = known ligands of W191G, reference not given, read-out: KD W191G
[6] = compounds selected from the SEV docking screen, CcP Gateless cavity, UV-Vis Heme Soret band titration, read-out: KD

T2 sequence (P00431 other isoform, or with tags, fused parts or gaps T120I/D219G/DEL257-258/A260G): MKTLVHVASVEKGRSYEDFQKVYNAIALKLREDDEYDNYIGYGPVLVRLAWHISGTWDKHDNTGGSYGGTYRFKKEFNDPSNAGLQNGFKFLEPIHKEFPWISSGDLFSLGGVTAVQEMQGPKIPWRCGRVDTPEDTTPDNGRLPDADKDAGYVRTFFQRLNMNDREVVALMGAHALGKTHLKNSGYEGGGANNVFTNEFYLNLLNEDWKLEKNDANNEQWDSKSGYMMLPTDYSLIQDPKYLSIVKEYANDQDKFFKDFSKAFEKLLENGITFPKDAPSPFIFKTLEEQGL
T1 sequence (P00431 other isoform, or with tags, fused parts or gaps T120I/D219G/DEL257-258/A260G): as above

Cc1cnc(N)s1 [Compound 1, 2-amino-5-methylthiazole]
Kd [1, 4]: 95 µM
loss in affinity going from W191G to Gateless [2]: 16 fold
TΔS (CcP Gateless): 0.21 kcal/mol
ΔG (CcP Gateless): -5.21 kcal/mol
ΔH (CcP Gateless): -5.00 kcal/mol
Kd [3, 5]: 6 µM

Nc1ccnc(N)n1 [Compound 2, 2,4-diaminopyrimidine]
Kd [1, 4]: 389 µM
loss in affinity going from W191G to Gateless [2]: 8 fold
TΔS (CcP Gateless): -1.14 kcal/mol
ΔG (CcP Gateless): -4.42 kcal/mol
ΔH (CcP Gateless): -5.56 kcal/mol
Kd [3, 5]: 50 µM

Nc1cccc(N)n1 [Compound 3, 2,6-diaminopyridine]
Kd [1, 4]: 38 µM
improvement in affinity in Gateless versus closed W191G [2]: about 1.5 fold
TΔS (CcP Gateless): -3.31 kcal/mol
ΔG (CcP Gateless): -5.73 kcal/mol
ΔH (CcP Gateless): -9.04 kcal/mol
Kd [3, 5]: 60 µM

C[n+]1cccc(N)c1 [Compound 4, 3-amino-1-methylpyridinium]
Kd [1, 4]: ~3000 µM
loss in affinity going from W191G to Gateless [2]: 6 fold
TΔS (CcP Gateless): ~-3.6† kcal/mol
ΔG (CcP Gateless): ~-3.6† kcal/mol
ΔH (CcP Gateless): ~-7.2† kcal/mol
Kd [3, 5]: 500 µM

Oc1ccccc1 [Compound 5, Phenol]
change of affinity between the two cavities ([2]; W191G versus Gateless): almost unchanged
Kd [3, 5]: 4100 µM

Oc1cccc(F)c1O [Compound 6, 3-fluorocatechol]
Kd ([1]; open Gateless cavity, read-out: affinity in Gateless): 3100 µM
Kd [1, 4]: ~3100 µM
improvement in affinity in Gateless versus closed W191G [2]: 2 fold
ΔG (CcP Gateless): ~-3.2† kcal/mol
ΔH (CcP Gateless): ~-1.0† kcal/mol
Kd ([3]; no reference given, read-out: affinity in W191G): 7700 µM

O=C(/C=C/c1ccc(F)cc1)c1ccco1 [Compound 7]
Binding by UV-Vis [1]: none showed measurable affinity; also recorded: No binding

O=C(Oc1ccccc1)c1ccc2n[nH]nc2c1 [Compound 8]
Binding by UV-Vis [1]: none showed measurable affinity; also recorded: No binding

O=C(Oc1cccc([N+](=O)[O-])c1)c1ccncc1 [Compound 9]
Binding by UV-Vis [1]: none showed measurable affinity; also recorded: No binding

Nc1c2c(nc3sccc13)CCCC2 [Compound 10, 5,6,7,8-tetrahydrothieno[2,3-b]quinolin-4-amine]
Kd [1, 6]: 64 µM

Nc1c(Br)cnc2ccccc12 [Compound 11]
Kd [1, 6]: 19 µM

Nc1c([N+](=O)[O-])cnc2ccccc12 [Compound 13]
Kd [1, 6]: 8 µM

Nc1cccc2nccn12 [Compound 14, imidazo[1,2-a]pyridin-5-amine]
Kd [1, 6]: 14 µM

Cn1ccnc1Sc1ccccc1N [Compound 15]
Kd [1, 6]: 203 µM

COc1ccc(Nc2cc(C)nc(N)n2)cc1 [Compound 16]
Kd [1, 6]: 17 µM

OCc1cnc2cc[nH]c2c1 [Compound 17, (1H-Pyrrolo[3,2-b]pyridin-6-yl)methanol]
Kd [1, 6]: 982 µM

Cc1cc(N)n(-c2ccccc2[N+](=O)[O-])n1 [Compound 18]
Kd [1, 6]: 823 µM

C[C@@H](O)CNc1ncnc2ccccc12 [Compound 19]
Kd [1, 6]: 37 µM

Nc1ccc2nccn2c1 [Compound 20, Imidazo[1,2-a]pyridin-6-amine]
Kd [1, 6]: 290 µM

Cc1cn2cccc(O)c2n1 [Compound 21]
Kd [1, 6]: 16 µM

CNc1nc2ccccc2[nH]1 [Compound 22, N-methyl-1H-1,3-benzodiazol-2-amine]
Kd [1, 6]: 288 µM

Nc1ncc(C=O)c(N)n1 [Compound 23]
KD ([1]; compounds selected from the SEV docking screen, CcP Gateless cavity, UV-Vis Heme Soret band titration): Non Binder

O=Cc1cnc2cc[nH]c2c1 [Compound 24, 1H-Pyrrolo[3,2-b] pyridine-6-carbaldehyde]
Kd [1, 6]: > 2000 µM
